From patent publication US20060216820A1, “Use of retinoic esters of hyaluronic acid for the differentiation of totipotent stem cells” (SINTOFARM S.P.A., priority 2003, published 2006)

Experiments:
[1] = tested on: P19 cells; details: cited from earlier work
[2] = tested on: human totipotent stem cells; details: totipotent stem cells (Xu et al. 2002); cited from earlier work
[3] = tested on: GTR1 stem cells; experiment: In vitro nuclear run-off transcription in nuclei from treated GTR1 cells; assay type: cell-based, murine; details: 1 μM chelerithrine with retinoic esters of hyaluronic acid 0.75 mg/ml, 10 days; puromycin-selected cardiomyocytes
Text: Gene transcription studies. Gene transcription rate has been analyzed in nuclei isolated by an approach of “in vitro nuclear run-off transcription”, previously described (Ventura C., J Biol Chem. 1997; 272:6685-6692.; Ventura C. et al. J Biol. Chem. 1998; 273:13383-13386.). Briefly, nuclei have been resuspended in buffer containing 50 mmol/L Tris/HCl, pH 8.0, 5 mmol/L MgCl2, 0.1 mmol/L EDTA, 40% glycerol, 0.1 mmol/L dithiothreitol, 0.5 mmol/L phenylmethylsulfonylfluoride, 1 μmol/L leupeptin, and 10 mmol/L β-mercaptoethanol. 100 μl of 2× reaction buffer (10 mmol/L Tris/HCl, pH 7.5, 5 mmol/L MgCl2, 0.3 mol/L KCl, 5 mmol/L dithiothreitol, 1 mmol/L of ATP, GTP, and CTP), and 5 μl of [α-^32P]UTP (3000 Ci/mmol) have been added to the nuclear suspension (90 μl). Samples were then incubated at room temperature for 15 min. The reaction has been stopped by digesting the DNA in presence of RNase-free DNase. The nuclear RNA has been isolated as described in Ventura C et al. J Biol Chem. 1997; 272:6685-6692. Approximately 5×10^6 cpm of ^32P labeled nuclear RNA were hybridized for 12 hours at 55° C. in presence of cold (not radioactive) probes of antisense mRNA of GATA-4, Nkx-2.5 or prodynorphin, generated, as described above, in absence of radiolabeled ribonucleotides. […]

[4] = tested on: GTR1 stem cells; experiment: RT-PCR detection of cardiospecific transcripts (MHC, MLC) in GTR1 cells; assay type: cell-based, murine; details: 1 μM chelerithrine with retinoic esters of hyaluronic acid 0.75 mg/ml, 10 days; puromycin-selected cardiomyocytes
Text: Analysis of gene expression. Total RNA has been extracted from stem cells as described by Ventura et al. (Ventura C et al. J Biol. Chem. 1997; 272: 6685-6692). The levels of specific mRNAs have been analyzed by “RNase protection”, using [^32P]CTP radiolabeled cRNA probes (antisense mRNA) specific for each transcript of interest, according to a previously described protocol (Ventura C et al. J Biol. Chem. 1997; 272:6685-6692). Briefly, fragments corresponding to the main exons of GATA-4 (292 bp), Nkx-2.5 (414 bp) and prodynorphin (424 bp) genes have been inserted in the vector pCRII-TOPO (Invitrdgen). Transcription of the vector linearized With ApaI, BamHI, or XbaI respectively generated sense strand mRNA of prodynorphin, GATA-4, or Nkx-2.5. Transcription in presence of [^32P]CTP of the plasmid linearized with BamHI produced the antisense mRNA strand of prodynorphin and Nkx-2.5, while transcription of the vector linearized with XbaI generated the antisense mRNA strand of GATA-4. In some experiments the analysis of mRNA expression has been performed by means of RT-PCR, as described in (Ventura C, Maioli M. Circ Res. 2000:87:189-194).
GTR1 stem cells were used in these studies. […]

Structure (SMILES) | cells that differentiate in embryonic cardiomyocytes ([1]; P19 cells in presence of DMSO) | overall efficiency of cardiogenic effect ([1]; pluripotent murine cells in vitro) | percentage of totipotent stem cells undergoing cardiomyocyte differentiation [2] | effect of chelerithrine on the ester-induced expression/transcription of cardiogenic genes (GATA-4, Nkx-2.5, prodynorphin) [3] | effect of chelerithrine on the ester-induced expression of cardiospecific genes (MHC, MLC) [4]
C[S+](C)[O-] [DMSO, dimethylsulfoxide] | 15-20% | rather low | unable to produce a significant increase | – | –
COc1ccc2c(c[n+](C)c3c4cc5c(cc4ccc23)OCO5)c1OC [chelerithrine] | – | – | – | antagonized | antagonized
